Tests used:
[1] = target: T1, Gallus N-acetyl-α-D-galactosaminidase (Gallus gallus, UniProt Q90744); assay: Substrate specificity (relative activity); assay type: biochemical, Gallus domesticus; conditions: % of enzyme activity on the corresponding conjugate, 2.5 mM PNP conjugates, pH 3.5
T1 construct: the cDNA clone corresponds to the region of the mRNA encoding the mature polypeptide for the chicken α-N-acetyl-galactosaminidase; from tissue; host or cells: chicken liver
T1 sequence (Q90744 1-405 S162A): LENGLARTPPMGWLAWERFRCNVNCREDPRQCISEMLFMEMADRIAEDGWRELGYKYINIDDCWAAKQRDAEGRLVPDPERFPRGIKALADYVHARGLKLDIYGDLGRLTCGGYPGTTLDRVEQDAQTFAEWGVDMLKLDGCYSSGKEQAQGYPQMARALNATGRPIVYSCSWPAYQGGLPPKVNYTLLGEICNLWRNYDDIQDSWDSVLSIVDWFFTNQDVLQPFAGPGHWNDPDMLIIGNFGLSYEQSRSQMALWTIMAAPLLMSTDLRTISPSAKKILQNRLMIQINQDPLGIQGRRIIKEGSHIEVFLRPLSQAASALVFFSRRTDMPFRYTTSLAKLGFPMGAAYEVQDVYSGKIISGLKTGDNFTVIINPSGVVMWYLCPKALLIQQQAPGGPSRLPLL

[2] = substrate: CC(=O)N[C@H]1[C@@H](Oc2ccc([N+](=O)[O-])cc2)O[C@H](CO)[C@H](O)[C@@H]1O; assay: Kinetic parameters (Km, turnover number) of Gallus enzyme; assay type: biochemical, Gallus domesticus
Description: (§1) The Kms for ONP- and PNP-N-acetyl-α-D-galactosaminide were determined by varying the substrate concentration in 50 mM Na citrate+1 mg/ml BSA, pH 3.5.

[3] = substrate: CC(=O)N[C@H]1[C@@H](Oc2ccccc2[N+](=O)[O-])O[C@H](CO)[C@H](O)[C@@H]1O; assay: as above; assay type: biochemical, Gallus domesticus; conditions: other: Table III, Example 1 preparation, 50 mM Na citrate + 1 mg/ml BSA, pH 3.5, mean of six determinations, 37.0 °C
Description: as §1

[4] = substrate: O=[N+]([O-])c1ccc(O[C@H]2O[C@H](CO)[C@H](O)[C@H](O)[C@H]2O)cc1; assay: as above; assay type: biochemical, Gallus domesticus; conditions: other: Table III, Example 1 preparation, 50 mM Na citrate + 1 mg/ml BSA, pH 3.5, mean of six determinations, 37.0 °C
Description: as §1

[5] = Enzymatic activity quantitated during the purification; assay type: biochemical; conditions: Table V, improved (batch) purification; mean from three different preps
Description: Enzymatic activity was quantitated during the purification by measuring production of p-nitrophenol (PNP) from PNP-N-acetyl-α-D-galactosaminide or o-nitrophenol (ONP) from ONP-N-acetyl-α-D-galactosaminide. Enzyme aliquots were incubated in 200 μl of 50 mM Na citrate+1 mg/ml BSA+1.0 mM PNP-N-acetyl-α-D-galactosaminide, pH 3.5, at 37° C. The reactions were quenched with 1.0 ml of 0.25M Na2 CO3 and the OD 405 nm was measured. One unit of activity was defined as 1.0 μmole of substrate hydrolyzed per minute.

[6] = Table IV, Example 1 preparation
[7] = Table VI, improved purification (Example 2)
[8] = other: Example 2 batch preparation, pH 3.5, N=3, 37.0 °C
[9] = other: Table III, Example 1 preparation, 50 mM Na citrate + 1 mg/ml BSA, pH 3.5, mean of six determinations, 37.0 °C

Molecule	Relative Activity [1, 6]	Relative Activity [1, 7]	also measured
O=[N+]([O-])c1ccc(O[C@@H]2O[C@H](CO)[C@@H](O)[C@H](O)[C@H]2O)cc1 [PNP-β-D-glucopyranoside]	< 0.08%	< 0.08%	–
O=[N+]([O-])c1ccc(O[C@@H]2O[C@H](CO)[C@H](O)[C@H](O)[C@H]2O)cc1 [PNP-β-D-galactopyranoside]	< 0.08%	< 0.08%	–
O=[N+]([O-])c1ccc(O[C@@H]2OC[C@H](O)[C@H](O)[C@H]2O)cc1 [PNP-α-L-arabinopyranoside]	< 0.08%	< 0.08%	–
CC(=O)N[C@H]1[C@@H](Oc2ccc([N+](=O)[O-])cc2)O[C@H](CO)[C@H](O)[C@@H]1O [PNP-N-acetyl-α-D-galactosaminide]	100.00%	100.00%	–
C[C@@H]1O[C@@H](Oc2ccc([N+](=O)[O-])cc2)[C@@H](O)[C@H](O)[C@@H]1O [PNP-α-L-fucopyranoside]	< 0.08%	< 0.08%	–
CC(=O)NC1C(O)CC(Oc2ccc3c(C)cc(=O)oc3c2)(C(=O)O)OC1C(O)C(O)CO (stereo not drawn) [4-MU-N-acetyl-α-neuraminic acid]	< 0.01%	< 0.01%	–
CC(=O)N[C@H]1[C@H](Oc2ccc([N+](=O)[O-])cc2)O[C@H](CO)[C@H](O)[C@@H]1O [PNP-N-acetyl-β-D-galactosaminide]	< 0.08%	< 0.08%	–
Cc1cc(=O)oc2cc(O[C@H]3O[C@H](CO)[C@H](O)[C@H](O)[C@H]3O)ccc12 [4-MU-α-D-galactopyranoside]	100.00%	100.00%	–
CC(=O)N[C@H]1[C@H](Oc2ccc([N+](=O)[O-])cc2)O[C@H](CO)[C@@H](O)[C@@H]1O [PNP-N-acetyl-β-D-glucosaminide]	< 0.08%	< 0.08%	–
CC(=O)N[C@H]1[C@@H](Oc2ccc([N+](=O)[O-])cc2)O[C@H](CO)[C@@H](O)[C@@H]1O [PNP-N-acetyl-α-D-glucosaminide]	< 0.08%	< 0.08%	–
C[C@@H]1O[C@H](Oc2ccc([N+](=O)[O-])cc2)[C@@H](O)[C@H](O)[C@@H]1O [PNP-β-L-fucopyranoside]	< 0.08%	< 0.08%	–
O=[N+]([O-])c1ccc(O[C@H]2O[C@H](CO)[C@@H](O)[C@H](O)[C@H]2O)cc1 [PNP-α-D-glucopyranoside]	< 0.08%	< 0.08%	–
Gallus N-acetyl-α-D-galactosaminidase (Gallus gallus) (protein, the cDNA clone corresponds to the region of the mRNA encoding the mature polypeptide for the chicken α-N-acetyl-galactosaminidase; from tissue; host or cells: chicken liver) LENGLARTPPMGWLAWERFRCNVNCREDPRQCISEMLFMEMADRIAEDGWRELGYKYINIDDCWAAKQRDAEGRLVPDPERFPRGIKALADYVHARGLKLDIYGDLGRLTCGGYPGTTLDRVEQDAQTFAEWGVDMLKLDGCYSSGKEQAQGYPQMARALNATGRPIVYSCSWPAYQGGLPPKVNYTLLGEICNLWRNYDDIQDSWDSVLSIVDWFFTNQDVLQPFAGPGHWNDPDMLIIGNFGLSYEQSRSQMALWTIMAAPLLMSTDLRTISPSAKKILQNRLMIQINQDPLGIQGRRIIKEGSHIEVFLRPLSQAASALVFFSRRTDMPFRYTTSLAKLGFPMGAAYEVQDVYSGKIISGLKTGDNFTVIINPSGVVMWYLCPKALLIQQQAPGGPSRLPLL	–	–	Km [2, 8]: 0.86, S.D.=0.03 mM; kcat [2, 8]: 3318, S.D.=118.5 moles substrate/mole enzyme/minute; Km [2, 9]: 1190 µM; kcat [2, 9]: 2370 Moles of substrate hydrolyzed per mole of enzyme per minute; Km [3]: 2400 µM; kcat [3]: 637 Moles of substrate hydrolyzed per mole of enzyme per minute; Km [4]: 10.7 mM; kcat [4]: 201 Moles of substrate hydrolyzed per mole of enzyme per minute
Affinity Concentrate: purified α-N-acetyl-galactosaminidase after affinity column and concentration (Example 2) (protein, UniProt Q90744 1-405, looked up) Alpha-N-acetylgalactosaminidas …: LENGLARTPPMGWLAWERFRCNVNCREDPRQCISEMLFMEMADRIAEDGWRELGYKYINIDDCWAAKQRDAEGRLVPDPERFPRGIKALADYVHARGLKLDIYGDLGRLTCGGYPGTTLDRVEQDAQTFAEWGVDMLKLDGCYSSGKEQAQGYPQMARALNSTGRPIVYSCSWPAYQGGLPPKVNYTLLGEICNLWRNYDDIQDSWDSVLSIVDWFFTNQDVLQPFAGPGHWNDPDMLIIGNFGLSYEQSRSQMALWTIMAAPLLMSTDLRTISPSAKKILQNRLMIQINQDPLGIQGRRIIKEGSHIEVFLRPLSQAASALVFFSRRTDMPFRYTTSLAKLGFPMGAAYEVQDVYSGKIISGLKTGDNFTVIINPSGVVMWYLCPKALLIQQQAPGGPSRLPLL	–	–	Specific Activity [5]: 71.03 µmol/mg/min

From patent US5610063A, “cDNA for α-N-acetyl-galactosaminidase from Gallus domesticus” (Curators of the University of Missouri, priority 1995, dated 1997)
